Data from patent US20240050428A1 (Cullgen (Shanghai), Inc., priority 2020, published 2024).
Where two headings read alike, the source gives them in different places.

Experiments:
MV4;11 cells = assay: Cell viability assay (CellTiter-Glo) in MV4;11 cells, alone or with gilteritinib; format: cell-based; conditions: Homo sapiens, MV4-11, 72 h, MV4;11 cells, three days, CellTiter-Glo, read-out: MV4
MOLM-13 cells = assay: Cell viability assay (CellTiter-Glo) in MOLM-13 cells, alone or with gilteritinib; format: cell-based; conditions: Homo sapiens, MOLM-13, 72 h, MOLM-13 cells, three days, CellTiter-Glo
[1] = compound alone (without gilteritinib), 11 IC50
[2] = compound with gilteritinib 10 nM, 11 IC50 gilteritinib
[3] = compound alone (without gilteritinib), read-out: MOLM-13 IC50
[4] = compound with gilteritinib 20 nM, read-out: MOLM-13 IC50 gilteritinib

CN1CCN(c2cn([C@H]3C[C@H](CNc4ccc5c(c4)C(=O)N(C4CCC(=O)NC4=O)C5=O)C3)nc2C2CC2)CC1 (stereo partly drawn) [GS-459, 5-(((trans-3-(3-cyclopropyl-4-(4-methylpiperazin-1-yl)-1H-pyrazol-1-yl)cyclobutyl)methyl)amino)-2-(2,6-dioxopiperidin-3-yl)isoindoline-1,3-dione]
IC50 (MV4;11 cells; [1]): > 1000 nM
IC50 (MV4;11 cells; [2]): > 1000 nM
IC50 (MOLM-13 cells; [3]): > 1000 nM
IC50 (MOLM-13 cells; [4]): > 1000 nM

CN1CCC(c2cn([C@H]3C[C@H](CNc4ccc5c(c4)C(=O)N(C4CCC(=O)NC4=O)C5=O)C3)nc2C2CC2)CC1 (stereo partly drawn) [GS-460, 5-(((trans-3-(3-cyclopropyl-4-(1-methylpiperidin-4-yl)-1H-pyrazol-1-yl)cyclobutyl)methyl)amino)-2-(2,6-dioxopiperidin-3-yl)isoindoline-1,3-dione]
IC50 (MV4;11 cells; [1]): > 1000 nM
IC50 (MV4;11 cells; [2]): > 1000 nM
IC50 (MOLM-13 cells; [3]): > 1000 nM
IC50 (MOLM-13 cells; [4]): > 1000 nM

O=C1CCC(N2C(=O)c3ccc(CNC4CC(n5cc(-c6cnc7ccccc7n6)c(C6CC6)n5)C4)cc3C2=O)C(=O)N1 (stereo not shown) [GS-461, 5-(((3-(3-cyclopropyl-4-(quinoxalin-2-yl)-1H-pyrazol-1-yl)cyclobutyl)amino)methyl)-2-(2,6-dioxopiperidin-3-yl)isoindoline-1,3-dione]
IC50 (MV4;11 cells; [1]): > 1000 nM
IC50 (MV4;11 cells; [2]): > 1000 nM
IC50 (MOLM-13 cells; [3]): > 1000 nM
IC50 (MOLM-13 cells; [4]): > 1000 nM

COc1ccc(-c2cnn([C@H]3C[C@H](CCCNc4ccc5c(c4)C(=O)N(C4CCC(=O)NC4=O)C5=O)C3)c2)nc1 (stereo partly drawn) [GS-462, 2-(2,6-dioxopiperidin-3-yl)-5-((3-(trans-3-(4-(5-methoxypyridin-2-yl)-1H-pyrazol-1-yl)cyclobutyl)propyl)amino)isoindoline-1,3-dione]
IC50 (MV4;11 cells; [1]): 100 to 1000 nM
IC50 (MV4;11 cells; [2]): 10 to 100 nM
IC50 (MOLM-13 cells; [3]): 100 to 1000 nM
IC50 (MOLM-13 cells; [4]): 10 to 100 nM

CN1CCN(c2ccc3ncc(-c4cn([C@H]5C[C@H](CNc6ccc7c(c6)C(=O)N(C6CCC(=O)NC6=O)C7=O)C5)nc4C4CC4)nc3c2)CC1 (stereo partly drawn) [GS-463, 5-(((trans-3-(3-cyclopropyl-4-(7-(4-methylpiperazin-1-yl)quinoxalin-2-yl)-1H-pyrazol-1-yl)cyclobutyl)methyl)amino)-2-(2,6-dioxopiperidin-3-yl)isoindoline-1,3-dione]
IC50 (MV4;11 cells; [1]): 10 to 100 nM
IC50 (MV4;11 cells; [2]): < 10 nM
IC50 (MOLM-13 cells; [3]): 10 to 100 nM
IC50 (MOLM-13 cells; [4]): < 10 nM

O=C1CCC(N2C(=O)c3ccc(NC[C@H]4C[C@H](n5cc(-c6cnc7ccc(N8CCOCC8)cc7n6)c(C6CC6)n5)C4)cc3C2=O)C(=O)N1 (stereo partly drawn) [GS-464, 5-(((trans-3-(3-cyclopropyl-4-(7-morpholinoquinoxalin-2-yl)-1H-pyrazol-1-yl)cyclobutyl)methyl)amino)-2-(2,6-dioxopiperidin-3-yl)isoindoline-1,3-dione]
IC50 (MV4;11 cells; [1]): < 10 nM
IC50 (MV4;11 cells; [2]): < 10 nM
IC50 (MOLM-13 cells; [3]): < 10 nM
IC50 (MOLM-13 cells; [4]): < 10 nM

Cn1cccc(-c2cn([C@H]3C[C@H](CNc4ccc5c(c4)C(=O)N(C4CCC(=O)NC4=O)C5=O)C3)nc2C2CC2)c1=O (stereo partly drawn) [GS-465, 5-(((trans-3-(3-cyclopropyl-4-(1-methyl-2-oxo-1,2-dihydropyridin-3-yl)-1H-pyrazol-1-yl)cyclobutyl)methyl)amino)-2-(2,6-dioxopiperidin-3-yl)isoindoline-1,3-dione]
IC50 (MV4;11 cells; [1]): > 1000 nM
IC50 (MV4;11 cells; [2]): 100 to 1000 nM
IC50 (MOLM-13 cells; [3]): > 1000 nM
IC50 (MOLM-13 cells; [4]): 10 to 100 nM

O=C1CCC(N2C(=O)c3ccc(NC[C@H]4C[C@H](n5cc(-c6cccc(C7CC7)n6)c(C6CC6)n5)C4)cc3C2=O)C(=O)N1 (stereo partly drawn) [GS-466, 5-(((trans-3-(3-cyclopropyl-4-(6-cyclopropylpyridin-2-yl)-1H-pyrazol-1-yl)cyclobutyl)methyl)amino)-2-(2,6-dioxopiperidin-3-yl)isoindoline-1,3-dione]
IC50 (MV4;11 cells; [1]): 10 to 100 nM
IC50 (MV4;11 cells; [2]): 10 to 100 nM
IC50 (MOLM-13 cells; [3]): 100 to 1000 nM
IC50 (MOLM-13 cells; [4]): 10 to 100 nM

O=C1CCC(N2C(=O)c3ccc(NC[C@H]4C[C@H](n5cc(-c6ncccc6C6CC6)c(C6CC6)n5)C4)cc3C2=O)C(=O)N1 (stereo partly drawn) [GS-467, 5-(((trans-3-(3-cyclopropyl-4-(3-cyclopropylpyridin-2-yl)-1H-pyrazol-1-yl)cyclobutyl)methyl)amino)-2-(2,6-dioxopiperidin-3-yl)isoindoline-1,3-dione]
IC50 (MV4;11 cells; [1]): 10 to 100 nM
IC50 (MV4;11 cells; [2]): < 10 nM
IC50 (MOLM-13 cells; [3]): 10 to 100 nM
IC50 (MOLM-13 cells; [4]): 10 to 100 nM

O=C1CCC(N2C(=O)c3ccc(NC[C@H]4C[C@H](n5cc(C6CCCCC6)c(C6CC6)n5)C4)cc3C2=O)C(=O)N1 (stereo partly drawn) [GS-468, 5-(((trans-3-(4-cyclohexyl-3-cyclopropyl-1H-pyrazol-1-yl)cyclobutyl)methyl)amino)-2-(2,6-dioxopiperidin-3-yl)isoindoline-1,3-dione]
IC50 (MV4;11 cells; [1]): 10 to 100 nM
IC50 (MV4;11 cells; [2]): 10 to 100 nM
IC50 (MOLM-13 cells; [3]): 100 to 1000 nM
IC50 (MOLM-13 cells; [4]): 10 to 100 nM

O=C1CCC(N2C(=O)c3ccc(CCN4CC(n5cc(-c6cnc7ccccc7n6)c(C6CC6)n5)C4)cc3C2=O)C(=O)N1 (stereo not shown) [GS-469, 5-(2-(3-(3-cyclopropyl-4-(quinoxalin-2-yl)-1H-pyrazol-1-yl)azetidin-1-yl)ethyl)-2-(2,6-dioxopiperidin-3-yl)isoindoline-1,3-dione]
IC50 (MV4;11 cells; [1]): > 1000 nM
IC50 (MV4;11 cells; [2]): > 1000 nM
IC50 (MOLM-13 cells; [3]): > 1000 nM
IC50 (MOLM-13 cells; [4]): > 1000 nM

O=C1CCC(N2C(=O)c3ccc(NC[C@H]4C[C@H](n5nc(C6CC6)c6cccnc65)C4)cc3C2=O)C(=O)N1 (stereo partly drawn) [GS-470, 5-(((trans-3-(3-cyclopropyl-1H-pyrazolo[3,4-b]pyridin-1-yl)cyclobutyl)methyl)amino)-2-(2,6-dioxopiperidin-3-yl)isoindoline-1,3-dione]
IC50 (MV4;11 cells; [1]): 10 to 100 nM
IC50 (MV4;11 cells; [2]): < 10 nM
IC50 (MOLM-13 cells; [3]): 10 to 100 nM
IC50 (MOLM-13 cells; [4]): < 10 nM

O=C1CCC(N2C(=O)c3ccc(NC[C@H]4C[C@H](n5cc(-c6cccc(OC7CC7)n6)c(C6CC6)n5)C4)cc3C2=O)C(=O)N1 (stereo partly drawn) [GS-471, 5-(((trans-3-(4-(6-cyclopropoxypyridin-2-yl)-3-cyclopropyl-1H-pyrazol-1-yl)cyclobutyl)methyl)amino)-2-(2,6-dioxopiperidin-3-yl)isoindoline-1,3-dione]
IC50 (MV4;11 cells; [1]): 10 to 100 nM
IC50 (MV4;11 cells; [2]): 10 to 100 nM
IC50 (MOLM-13 cells; [3]): 100 to 1000 nM
IC50 (MOLM-13 cells; [4]): 10 to 100 nM

CN1CCCC(c2cn([C@H]3C[C@H](CNc4ccc5c(c4)C(=O)N(C4CCC(=O)NC4=O)C5=O)C3)nc2C2CC2)C1 (stereo partly drawn) [GS-472, 5-(((trans-3-(3-cyclopropyl-4-(1-methylpiperidin-3-yl)-1H-pyrazol-1-yl)cyclobutyl)methyl)amino)-2-(2,6-dioxopiperidin-3-yl)isoindoline-1,3-dione]
IC50 (MV4;11 cells; [1]): > 1000 nM
IC50 (MV4;11 cells; [2]): > 1000 nM
IC50 (MOLM-13 cells; [3]): > 1000 nM
IC50 (MOLM-13 cells; [4]): > 1000 nM

O=C1CCC(N2C(=O)c3ccc(NC[C@H]4C[C@H](n5nc(C6CC6)c6ccncc65)C4)cc3C2=O)C(=O)N1 (stereo partly drawn) [GS-473, 5-(((trans-3-(3-cyclopropyl-1H-pyrazolo[3,4-c]pyridin-1-yl)cyclobutyl)methyl)amino)-2-(2,6-dioxopiperidin-3-yl)isoindoline-1,3-dione]
IC50 (MV4;11 cells; [1]): > 1000 nM
IC50 (MV4;11 cells; [2]): > 1000 nM
IC50 (MOLM-13 cells; [3]): > 1000 nM
IC50 (MOLM-13 cells; [4]): > 1000 nM

O=C1CCC(N2C(=O)c3ccc(NC[C@H]4C[C@H](n5nc(C6CC6)c6cnccc65)C4)cc3C2=O)C(=O)N1 (stereo partly drawn) [GS-474, 5-(((trans-3-(3-cyclopropyl-1H-pyrazolo[4,3-c]pyridin-1-yl)cyclobutyl)methyl)amino)-2-(2,6-dioxopiperidin-3-yl)isoindoline-1,3-dione]
IC50 (MV4;11 cells; [1]): > 1000 nM
IC50 (MV4;11 cells; [2]): > 1000 nM
IC50 (MOLM-13 cells; [3]): > 1000 nM
IC50 (MOLM-13 cells; [4]): > 1000 nM
